Experiment: refractive index (Na D-line) (dimensionless); xn = mol fraction of the nth substance listed
Details: 100.7 kPa, Liquid, Standard Abbe refractometry

CCCCn1cc[n+](C)c1.F[P-](F)(F)(F)(F)F [1-butyl-3-methylimidazolium hexafluorophosphate] + C1CCOC1
refractive index
Details | x1 = 0.0871 | x1 = 0.1801 | x1 = 0.2893 | x1 = 0.3939 | x1 = 0.4994 | x1 = 0.5709 | x1 = 0.7163 | x1 = 0.8069 | x1 = 0.9012 | x1 = 1
293.15 K | 1.41126 | 1.41369 | 1.41462 | 1.41441 | 1.41373 | 1.41332 | 1.41236 | 1.41205 | 1.41131 | 1.41068
298.15 K | 1.40906 | 1.41157 | 1.41279 | 1.41273 | 1.41208 | 1.4117 | 1.41089 | 1.41059 | 1.41014 | 1.40943
303.15 K | 1.40701 | 1.40957 | 1.41105 | 1.41113 | 1.41065 | 1.41025 | 1.40964 | 1.40935 | 1.40895 | 1.40818
308.15 K | 1.40475 | 1.40747 | 1.40915 | 1.40938 | 1.4092 | 1.40877 | 1.40818 | 1.40793 | 1.40778 | 1.40693
313.15 K | 1.40262 | 1.40554 | 1.40754 | 1.40784 | 1.40779 | 1.40748 | 1.40693 | 1.40681 | 1.40666 | 1.40567
318.15 K | 1.40012 | 1.40345 | 1.40558 | 1.40611 | 1.40619 | 1.40595 | 1.40552 | 1.40541 | 1.40525 | 1.40443
323.15 K | 1.39781 | 1.40139 | 1.40377 | 1.40455 | 1.40451 | 1.40452 | 1.40428 | 1.40425 | 1.40393 | 1.40312

CCCCCCn1cc[n+](C)c1.F[P-](F)(F)(F)(F)F [1-hexyl-3-methylimidazolium hexafluorophosphate] + C1CCOC1
refractive index
Details | x1 = 0.1036 | x1 = 0.2002 | x1 = 0.2868 | x1 = 0.4134 | x1 = 0.5222 | x1 = 0.6239 | x1 = 0.6951 | x1 = 0.7978 | x1 = 0.8953 | x1 = 1
293.15 K | 1.416 | 1.41971 | 1.42081 | 1.42058 | 1.41962 | 1.41895 | 1.41874 | 1.41868 | 1.41858 | 1.41958
298.15 K | 1.41392 | 1.41772 | 1.41878 | 1.41884 | 1.41828 | 1.41755 | 1.41759 | 1.41752 | 1.41756 | 1.41832
303.15 K | 1.41184 | 1.41573 | 1.41707 | 1.4171 | 1.41694 | 1.41615 | 1.41644 | 1.41636 | 1.41654 | 1.41692
308.15 K | 1.40966 | 1.41374 | 1.41536 | 1.41556 | 1.41536 | 1.41475 | 1.41509 | 1.41512 | 1.41552 | 1.41564
313.15 K | 1.40748 | 1.41175 | 1.41365 | 1.41402 | 1.41378 | 1.41335 | 1.41374 | 1.41388 | 1.4145 | 1.41422
318.15 K | 1.4053 | 1.40976 | 1.41194 | 1.41248 | 1.4122 | 1.41195 | 1.41239 | 1.41264 | 1.41348 | 1.41306
323.15 K | 1.40312 | 1.40777 | 1.41023 | 1.41094 | 1.41062 | 1.41055 | 1.41104 | 1.4114 | 1.41246 | 1.41175

CCCCCCCC[n+]1ccn(C)c1.F[P-](F)(F)(F)(F)F [1-octyl-3-methylimidazolium hexafluorophosphate] + C1CCOC1
refractive index
Details | x1 = 0.0767 | x1 = 0.1791 | x1 = 0.2783 | x1 = 0.3996 | x1 = 0.5198 | x1 = 0.612 | x1 = 0.6957 | x1 = 0.7754 | x1 = 0.8991 | x1 = 1
293.15 K | 1.41505 | 1.4205 | 1.42326 | 1.42412 | 1.42414 | 1.42411 | 1.42421 | 1.42432 | 1.42436 | 1.42441
298.15 K | 1.41278 | 1.41848 | 1.42126 | 1.42242 | 1.42258 | 1.42272 | 1.42284 | 1.42306 | 1.42329 | 1.42312
303.15 K | 1.41061 | 1.41646 | 1.41956 | 1.42076 | 1.42102 | 1.42123 | 1.42161 | 1.42189 | 1.42202 | 1.42171
308.15 K | 1.40824 | 1.41452 | 1.41786 | 1.4191 | 1.41946 | 1.41974 | 1.42018 | 1.42042 | 1.42085 | 1.42029
313.15 K | 1.40587 | 1.41284 | 1.41616 | 1.41744 | 1.4179 | 1.41825 | 1.41865 | 1.41915 | 1.41958 | 1.41888
318.15 K | 1.4035 | 1.41116 | 1.41446 | 1.41578 | 1.41634 | 1.41676 | 1.41712 | 1.41788 | 1.41831 | 1.4175
323.15 K | 1.40113 | 1.40948 | 1.41276 | 1.41412 | 1.41478 | 1.41527 | 1.41559 | 1.41661 | 1.41704 | 1.41601

— the NIST ThermoML archive (doi:10.1016/j.jct.2015.02.011)
